Measured values published in patent publication US10239870B2, “Dopamine D3 receptor antagonists” (priority 2014, dated 2019).

Target: hD2 recombinant receptor (human dopamine receptor type 2, long variant, CHO-Gα16-hD2L membranes) (Homo sapiens (Human), UniProt P14416)
Conditions: displacement of 0.08 nM [3H]-Spiperone

`CC(=O)N1CCC(c2nnc(SCCCN3CC[C@]4(C[C@@H]4c4ccc(C(F)(F)F)cc4F)C3)n2C)CC1` [Example 101, 1-{4-[5-({3-[(1S,3S/1R,3R)-1-[2-fluoro-4-(trifluoromethyl)phenyl]-5-azaspiro[2.4]heptan-5-yl]propyl}sulfanyl)-4-methyl-4H-1,2,4-triazol-3-yl]piperidin-1-yl}ethan-1-one] and `Cl.Cn1c(SCCCN2CC[C@]3(C[C@@H]3c3ccc(C(F)(F)F)cc3)C2)nnc1C1CCN(C(=O)C2CC2)CC1` [Example 106, (1R,3S)-5-(3-{[5-(1-cyclopropanecarbonylpiperidin-4-yl)-4-methyl-4H-1,2,4-triazol-3-yl]sulfanyl}propyl)-1-[4-(trifluoromethyl)phenyl]-5-azaspiro[2.4]heptane hydrochloride] are within 0.2 log units of each other in “D2 pKi” value: 5.99 for the first, 6.05 for the second.

First: CN(C)C(=O)c1cccc(-c2nnc(SCCCN3CC[C@]4(C[C@@H]4c4ccc(C(F)(F)F)cc4)C3)n2C)n1.Cl [Example 197, N,N-dimethyl-6-[4-methyl-5-({3-[(1R,3S)-1-[4-(trifluoromethyl)phenyl]-5-azaspiro[2.4]heptan-5-yl]propyl}sulfanyl)-4H-1,2,4-triazol-3-yl]pyridine-2-carboxamide hydrochloride]
Second: Cn1c(SCCCN2CC[C@]3(CC3c3ccc(C(F)(F)F)cc3)C2)nnc1-c1cccc(=O)[nH]1 (stereo partly drawn) [Example 122, 6-[4-methyl-5-({3-[(1R,3S/1S,3R)-1-[4-(trifluoromethyl)phenyl]-5-azaspiro[2.4]heptan-5-yl]propyl}sulfanyl)-4H-1,2,4-triazol-3-yl]-1,2-dihydropyridin-2-one]
The “D2 pKi” value of the first is lower: 5.66 for the first, 6.34 for the second.

Going from `Cl.Cn1c(SCCCN2CC[C@]3(C[C@@H]3c3ccc(C(F)(F)F)cc3F)C2)nnc1-c1ccn(C)c(=O)c1` [Example 139, 4-[5-({3-[(1S,3S)-1-[2-fluoro-4-(trifluoromethyl)phenyl]-5-azaspiro[2.4]heptan-5-yl]propyl}sulfanyl)-4-methyl-4H-1,2,4-triazol-3-yl]-1-methyl-1,2-dihydropyridin-2-one hydrochloride] to `Cn1c(SCCCN2CC[C@]3(C[C@H]3c3ccc(C(F)(F)F)cc3F)C2)nnc1-c1ccncc1` [Example 164, (1R,3S/1S,3R)-1-[2-fluoro-4-(trifluoromethyl)phenyl]-5-(3-{[4-methyl-5-(pyridin-4-yl)-4H-1,2,4-triazol-3-yl]sulfanyl}propyl)-5-azaspiro[2.4]heptane], the “D2 pKi” value rises from 5.83 to 6.23.

First: COCCC(=O)N1CCC(c2nnc(SCCCN3CC[C@]4(C[C@@H]4c4ccc(C(F)(F)F)cc4)C3)n2C)CC1.Cl [Example 104, 3-methoxy-1-{4-[4-methyl-5-({3-[(1R,3S)-1-[4-(trifluoromethyl)phenyl]-5-azaspiro[2.4]heptan-5-yl]propyl}sulfanyl)-4H-1,2,4-triazol-3-yl]piperidin-1-yl}propan-1-one hydrochloride]
Second: CC(=O)N1CC(c2nnc(SCCCN3CC[C@]4(C[C@@H]4c4ccc(C(F)(F)F)cc4)C3)n2C)C1 [Example 107, 1-{3-[4-methyl-5-({3-[(1R,3S/1S,3R)-1-[4-(trifluoromethyl)phenyl]-5-azaspiro[2.4]heptan-5-yl]propyl}sulfanyl)-4H-1,2,4-triazol-3-yl]azetidin-1-yl}ethan-1-one]
The “D2 pKi” value of the first is higher: 5.80 for the first, 5.56 for the second.

`Cl.Cn1c(SCCCN2CC[C@]3(C[C@@H]3c3ccc(C(F)(F)F)cc3)C2)nnc1-c1ccc2nncn2c1` [Example 268, (1R,3S)-5-{3-[(4-methyl-5-{[1,2,4]triazolo[4,3-a]pyridin-6-yl}-4H-1,2,4-triazol-3-yl)-sulfanyl]propyl}-1-[4-(trifluoromethyl)phenyl]-5-azaspiro[2.4]heptane] and `Cc1nnc2ccc(-c3nnc(SCCCN4CC[C@]5(C[C@@H]5c5ccc(C(F)(F)F)cc5)C4)n3C)cn12` [Example 271, (1R,3S)-5-{3-[(4-methyl-5-{3-methyl-[1,2,4]triazolo[4,3-a]pyridin-6-yl}-4H-1,2,4-triazol-3-yl)sulfanyl]propyl}-1-[4-(trifluoromethyl)phenyl]-5-azaspiro[2.4]heptane] are within 0.2 log units of each other in “D2 pKi” value: 5.80 for the first, 5.91 for the second.

Compared with `Cl.Cn1c(SCCCN2CC[C@]3(C[C@@H]3c3ccc(C(F)(F)F)cc3)C2)nnc1C1CCC(=O)NC1` (stereo partly drawn) [Example 121, 5-[4-methyl-5-({3-[(1R,3S)-1-[4-(trifluoromethyl)phenyl]-5-azaspiro[2.4]heptan-5-yl]propyl}sulfanyl)-4H-1,2,4-triazol-3-yl]piperidin-2-one hydrochloride], `Cn1c(SCCCN2CC[C@]3(CC3c3ccc(C(F)(F)F)cc3)C2)nnc1C1CCC(N)CC1` (stereo partly drawn) [Example 108, 4-[4-methyl-5-({3-[(1R,3S/1S,3R)-1-[4-(trifluoromethyl)phenyl]-5-azaspiro[2.4]heptan-5-yl]propyl}sulfanyl)-4H-1,2,4-triazol-3-yl]cyclohexan-1-amine] is higher in “D2 pKi” value: 5.92 for the first, 6.72 for the second.

`Cc1cnc(-c2nnc(SCCCN3CC[C@]4(CC4c4ccc(C(F)(F)F)cc4)C3)n2C)cn1` (stereo partly drawn) [Example 223, (1R,3S/1S,3R)-5-(3-{[4-methyl-5-(5-methylpyrazin-2-yl)-4H-1,2,4-triazol-3-yl]sulfanyl}propyl)-1-[4-(trifluoromethyl)phenyl]-5-azaspiro[2.4]heptane] and `Cc1cncc(-c2nnc(SCCCN3CC[C@]4(CC4c4ccc(C(F)(F)F)cc4)C3)n2C)n1` (stereo partly drawn) [Example 222, (1R,3S/1S,3R)-5-(3-{[4-methyl-5-(6-methylpyrazin-2-yl)-4H-1,2,4-triazol-3-yl]sulfanyl}propyl)-1-[4-(trifluoromethyl)phenyl]-5-azaspiro[2.4]heptane] are within 0.2 log units of each other in “D2 pKi” value: 6.00 for the first, 5.91 for the second.

`Cc1ncccc1-c1nnc(SCCCN2CC[C@]3(CC3c3ccccc3C(F)(F)F)C2)n1C.Cl.Cl` (stereo partly drawn) [Example 168, (1S,3S/1R,3R)-5-(3-{[4-methyl-5-(2-methylpyridin-3-yl)-4H-1,2,4-triazol-3-yl]sulfanyl}propyl)-1-[2-(trifluoromethyl)phenyl]-5-azaspiro[2.4]heptane dihydrochloride] and `Cn1c(SCCCN2CC[C@]3(CC3c3ccccc3C(F)(F)F)C2)nnc1-c1cc[nH]c(=O)c1` (stereo partly drawn) [Example 135, 4-[4-methyl-5-({3-[(1S,3S/1R,3R)-1-[2-(trifluoromethyl)phenyl]-5-azaspiro[2.4]heptan-5-yl]propyl}sulfanyl)-4H-1,2,4-triazol-3-yl]-1,2-dihydropyridin-2-one] are within 0.2 log units of each other in “D2 pKi” value: 6.44 for the first, 6.54 for the second.

First: Cc1nnsc1-c1nnc(SCCCN2CC[C@]3(C[C@@H]3c3ccc(C(F)(F)F)cc3)C2)n1C.Cl [Example 262, (1R,3S)-5-(3-{[4-methyl-5-(4-methyl-1,2,3-thiadiazol-5-yl)-4H-1,2,4-triazol-3-yl]sulfanyl}propyl)-1-[4-(trifluoromethyl)phenyl]-5-azaspiro[2.4]heptane]
Second: Cc1nccnc1-c1nnc(SCCCN2CC[C@]3(C[C@@H]3c3ccc(C(F)(F)F)cc3)C2)n1C [Example 224, (1R,3S/1S,3R)-5-(3-{[4-methyl-5-(3-methylpyrazin-2-yl)-4H-1,2,4-triazol-3-yl]sulfanyl}propyl)-1-[4-(trifluoromethyl)phenyl]-5-azaspiro[2.4]heptane]
The “D2 pKi” value of the first is higher: 6.18 for the first, 5.85 for the second.

Compared with `Cn1c(SCCCN2CC[C@]3(CC3c3ccccc3C(F)(F)F)C2)nnc1-c1ccc(=O)[nH]c1` (stereo partly drawn) [Example 132, 5-[4-methyl-5-({3-[(1S,3S/1R,3R)-1-[2-(trifluoromethyl)phenyl]-5-azaspiro[2.4]heptan-5-yl]propyl}sulfanyl)-4H-1,2,4-triazol-3-yl]-1,2-dihydropyridin-2-one], `Cn1c(SCCCN2CC[C@]3(CC3c3ccc(F)cc3)C2)nnc1-c1ccc(=O)[nH]c1` (stereo partly drawn) [Example 131, 5-[5-({3-[(1R,3S/1S,3R)-1-(4-fluorophenyl)-5-azaspiro[2.4]heptan-5-yl]propyl}sulfanyl)-4-methyl-4H-1,2,4-triazol-3-yl]-1,2-dihydropyridin-2-one] is lower in “D2 pKi” value: 6.87 for the first, 6.16 for the second.

First: Cc1ncoc1-c1nnc(SCCCN2CC[C@]3(CC3c3ccc(C(F)(F)F)nc3)C2)n1C (stereo partly drawn) [Example 61, (1R,3S/1S,3R)-5-(3-{[4-methyl-5-(4-methyl-1,3-oxazol-5-yl)-4H-1,2,4-triazol-3-yl]sulfanyl}propyl)-1-[6-(trifluoromethyl)pyridin-3-yl]-5-azaspiro[2.4]heptane]
Second: Cc1ccc(-c2nnc(SCCCN3CC[C@]4(CC4c4ccc(C(F)(F)F)cc4)C3)n2C)cn1 (stereo partly drawn) [Example 169, (1R,3S/1S,3R)-5-(3-{[4-methyl-5-(6-methylpyridin-3-yl)-4H-1,2,4-triazol-3-yl]sulfanyl}propyl)-1-[4-(trifluoromethyl)phenyl]-5-azaspiro[2.4]heptane]
The “D2 pKi” value of the first is lower: 5.63 for the first, 6.01 for the second.

First: Cl.Cn1c(SCCCN2CC[C@]3(C[C@@H]3c3ccc(C(F)(F)F)cc3)C2)nnc1-c1cccn2cnnc12 [Example 267, (1R,3S)-5-{3-[(4-methyl-5-{[1,2,4]triazolo[4,3-a]pyridin-8-yl}-4H-1,2,4-triazol-3-yl)-sulfanyl]propyl}-1-[4-(trifluoromethyl)phenyl]-5-azaspiro[2.4]heptane]
Second: Cn1c(SCCCN2CC[C@]3(CC3c3ccc(C(F)(F)F)cc3)C2)nnc1-c1cccnc1F (stereo partly drawn) [Example 173, (1R,3S/1S,3R)-5-(3-{[5-(2-fluoropyridin-3-yl)-4-methyl-4H-1,2,4-triazol-3-yl]sulfanyl}propyl)-1-[4-(trifluoromethyl)phenyl]-5-azaspiro[2.4]heptane]
The “D2 pKi” value of the first is lower: 5.38 for the first, 5.75 for the second.

In the case of `Cl.Cn1c(SCCCN2CC[C@]3(C[C@@H]3c3ccc(C(F)(F)F)cc3)C2)nnc1-c1ccc[nH]c1=O` [Example 125, 3-[4-methyl-5-({3-[(1R,3S)-1-[4-(trifluoromethyl)phenyl]-5-azaspiro[2.4]heptan-5-yl]propyl}sulfanyl)-4H-1,2,4-triazol-3-yl]-1,2-dihydropyridin-2-one hydrochloride], the “D2 pKi” value is reported as 5.48.
